In article PMC3985611 (Chemistry & biology, 2013) one finds IC50 data, which are given here for 1 compound.

Structures are written as SMILES.

In the experiment the target is Hsp70 (Homo sapiens, UniProt P0DMV8). Put plainly: competition of YK5-biotin pull-down in cancer cells. The experiment is classed as cell-based.
Hsp70, sequence (P0DMV8 2-641): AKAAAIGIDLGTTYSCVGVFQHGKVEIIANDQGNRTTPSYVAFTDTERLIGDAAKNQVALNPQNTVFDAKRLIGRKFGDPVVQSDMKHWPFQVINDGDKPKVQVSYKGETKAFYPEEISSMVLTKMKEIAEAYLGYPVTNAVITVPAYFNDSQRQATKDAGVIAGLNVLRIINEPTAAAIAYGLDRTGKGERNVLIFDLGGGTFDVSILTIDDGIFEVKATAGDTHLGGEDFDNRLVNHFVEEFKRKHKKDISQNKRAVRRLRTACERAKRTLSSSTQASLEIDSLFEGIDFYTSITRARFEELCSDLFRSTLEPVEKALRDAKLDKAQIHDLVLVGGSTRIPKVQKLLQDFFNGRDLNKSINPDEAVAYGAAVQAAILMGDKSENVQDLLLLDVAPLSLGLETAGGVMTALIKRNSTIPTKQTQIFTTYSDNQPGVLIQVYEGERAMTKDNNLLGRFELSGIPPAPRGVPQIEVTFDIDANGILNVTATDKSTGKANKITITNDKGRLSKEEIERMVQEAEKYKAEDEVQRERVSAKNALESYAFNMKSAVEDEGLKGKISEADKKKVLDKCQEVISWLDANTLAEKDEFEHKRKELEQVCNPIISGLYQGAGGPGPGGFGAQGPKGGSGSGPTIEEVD

As for `C=CC(=O)Nc1cc(N)nc(Sc2c(OC)nc(N3CCN(C)CC3)nc2OC)n1` [YK5], the IC50 – broadly, the concentration that inhibits the measured activity by half – was roughly 7 µM.
